This is an account of results in patent US7732604B2, “Triazolopyrazine derivatives” (Pfizer Inc., priority 2006, dated 2010).

Counter-ions that a name gives are not always drawn.

T1 sequence (P08581 974-1390 limits assumed): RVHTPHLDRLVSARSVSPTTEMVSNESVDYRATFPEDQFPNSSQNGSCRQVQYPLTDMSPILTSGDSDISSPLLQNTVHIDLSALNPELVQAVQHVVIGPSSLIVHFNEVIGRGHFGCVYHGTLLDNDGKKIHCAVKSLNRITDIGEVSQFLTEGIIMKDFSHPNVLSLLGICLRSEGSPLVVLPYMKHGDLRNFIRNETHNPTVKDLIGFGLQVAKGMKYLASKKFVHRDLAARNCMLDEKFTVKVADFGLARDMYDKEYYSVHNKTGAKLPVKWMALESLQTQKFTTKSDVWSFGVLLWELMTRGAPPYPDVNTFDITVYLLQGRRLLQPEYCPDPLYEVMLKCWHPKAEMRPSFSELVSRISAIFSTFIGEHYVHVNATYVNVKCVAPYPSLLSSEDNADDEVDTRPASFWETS

This assay has as its target T1, HGFR (Homo sapiens, UniProt P08581).
T1 construct: purchased Upstate 14-526
The experiment in a line: HGFR continuous-coupled spectrophotometric assay (tyrosine kinase activity on Met-2 substrate peptide). It counts as biochemical. To be noted: HGFR 50 nM, Met-2 peptide 0.5 mM, ATP 300 μM, 37° C., absorbance 340 nm; read-out: Ki.
Take `CC(O)c1cnc2nnn(Cc3ccc4ncccc4c3)c2n1` (stereo not shown) [Example 184, 1-(3-Quinolin-6-yl-methyl-3H-[1,2,3]tri-azolo[4,5-b]pyra-zin-5-yl)-ethanol]: the Ki stood at 231 nM.

Take `CC(O)CNc1cnc2nnn(Cc3ccc4ncccc4c3)c2n1` (stereo not shown) [Example 113, 1-{[1-(quinolin-6-yl-methyl)-1H-[1,2,3]tri-azolo[4,5-b]pyra-zin-6-yl]ami-no}propan-2-ol]: the Ki stood at 8 nM. Consider `CN[C@@H]1CCN(c2cnc3nnn(Cc4ccc5ncccc5c4)c3n2)C1` [Example 134, (3R)-N-methyl-1-[1-(quino-lin-6-yl-methyl)-1H-[1,2,3]tri-azolo[4,5-b]pyra-zin-6-yl]pyrro-lidin-3-amine], for which the Ki worked out at 7 nM. Consider `OCCC1(CO)CCN(c2cnc3nnn(Cc4ccc5ncccc5c4)c3n2)C1` (stereo not shown) [Example 106, 2-{3-(hydroxy-methyl)-1-[1-(quino-lin-6-ylmethyl)-1H-[1,2,3]tri-azolo[4,5-b]pyra-zin-6-yl]pyr-rolidin-3-yl}ethanol], for which the inhibitory constant (Ki) is 9 nM. For `c1cnc2ccc(Cn3nnc4ncc(NC5CCOCC5)nc43)cc2c1` [Example 143, 1-(quinolin-6-yl-methyl)-N-(tetra-hydro-2H-py-ran-4-yl)-1H-[1,2,3]tri-azolo[4,5-b]py-razin-6-amine], the inhibition constant (Ki) stood at 9 nM.

In the case of `c1cnc2ccc(Cn3nnc4ncc(N5CC[C@@H](N6CCOCC6)C5)nc43)cc2c1` [Example 153, 6-({6-[(3R)-3-morpho-lin-4-ylpyrro-lidin-1-yl]-1H-[1,2,3]tri-azolo[4,5-b]pyra-zin-1-yl}meth-yl)quinoline], the inhibition constant (Ki) is 15 nM.

For the molecule `Cn1nc(C(F)(F)F)cc1-c1cnc2nnn(Cc3ccc4ncccc4c3)c2n1` [Example 64, 6-[6-(2-Methyl-5-trifluoromethyl-2H-pyrazol-3-yl)-[1,2,3]triazolo[4,5-b]pyrazin-1-ylmethyl]-quinoline], the inhibition constant Ki turned out to be 4 nM. Consider `CN(C)CC1(O)CCN(c2cnc3nnn(Cc4ccc5ncccc5c4)c3n2)C1` (stereo not shown) [Example 158, 3-[(di-methylamino)meth-yl]-1-[1-(quino-lin-6-yl-methyl)-1H-[1,2,3]tri-azolo[4,5-b]pyra-zin-6-yl]pyrro-lidin-3-ol], for which the inhibition constant Ki amounted to 31 nM.

Take `N#CC1CCN(C2CCN(c3cnc4nnn(Cc5ccc6ncccc6c5)c4n3)C2)CC1` (stereo in doubt) [Example 148, 1-{(3R)-1-[1-(quino-lin-6-yl-methyl)-1H-[1,2,3]tri-azolo[4,5-b]pyra-zin-6-yl]pyrro-lidin-3-yl}pipe-ridine-4-carbo-nitrile]: the inhibition constant Ki came to 30 nM. As for `N[C@H]1CCCN(c2cnc3nnn(Cc4ccc5ncccc5c4)c3n2)C1` [Example 32, (S)-1-(3-(quinolin-6-ylmethyl)-3H-[1,2,3]triazolo[4,5-b]pyrazin-5-yl)piperidin-3-amine dihydrochloride], the figure is 69 nM; as for `NCCNc1cnc2nnn(Cc3ccc4ncccc4c3)c2n1` [Example 137, N-[1-(quinolin-6-yl-methyl)-1H-[1,2,3]tri-azolo[4,5-b]pyra-zin-6-yl]eth-ane-1,2-diamine], 27 nM. For the molecule `CNC(=O)c1ccc(-c2cnc3nnn(Cc4ccc5ncccc5c4)c3n2)cc1` [Example 19, N-methyl-4-(3-(quinolin-6-ylmethyl)-3H-[1,2,3]triazolo[4,5-b]pyrazin-5-yl)benzamide], the inhibition constant Ki is 3 nM.

On to `c1cnc2ccc(Cn3nnc4ncc(NC5CCOC5)nc43)cc2c1` (stereo not shown) [Example 146, 1-(quinolin-6-yl-methyl)-N-(tetra-hydrofuran-3-yl)-1H-[1,2,3]triazolo[4,5-b]pyra-zin-6-amine], for which the Ki came to 7 nM. Turning to `CC(C)(C)OC(=O)N[C@@H]1CCN(c2cnc3nnn(Cc4ccc5ncccc5c4)c3n2)C1` [Example 200, (R)-tert-butyl 1-(3-(quino-lin-6-yl-methyl)-3H-[1,2,3]tri-azolo[4,5-b]pyra-zin-5-yl)pyrrolidin-3-ylcarbamate], the Ki is 162 nM. Regarding `CN(C)CCN(C)C(=O)c1ccc(-c2cnc3nnn(Cc4ccc5ncccc5c4)c3n2)cc1` [Example 12, N-(2-(dimethylamino)ethyl)-N-methyl-4-(3-(quinolin-6-ylmethyl)-3H-[1,2,3]triazolo[4,5-b]pyrazin-5-yl)benzamide], the Ki turned out to be 38 nM. For `CCN(CC)c1cnc2nnn(Cc3ccc4ncccc4c3)c2n1` [Example 160, N,N-diethyl-1-(quino-lin-6-yl-methyl)-1H-[1,2,3]tri-azolo[4,5-b]pyra-zin-6-amine], the Ki was 13 nM. Next, `CCc1cnc2nnn(Cc3ccc4ncccc4c3)c2n1` [Example 52, 6-(6-Ethyl-[1,2,3]triazolo[4,5-b]pyrazin-1-ylmethyl)-quinoline]: 88 nM. In the case of `CNC1CCN(c2cnc3nnn(Cc4ccc5ncccc5c4)c3n2)CC1` [Example 135, N-methyl-1-[1-(quino-lin-6-yl-methyl)-1H-[1,2,3]tri-azolo[4,5-b]pyra-zin-6-yl]pipe-ridin-4-amine], the Ki turned out to be 35 nM. For the molecule `CS(=O)(=O)C1CCN(c2cnc3nnn(Cc4ccc5ncccc5c4)c3n2)C1` (stereo not shown) [Example 81, 6-({6-[3-(meth-ylsulfonyl)pyr-rolidin-1-yl]-1H-[1,2,3]tri-azolo[4,5-b]pyra-zin-1-yl}meth-yl)quinoline], the Ki is 43 nM. Next, `COCCn1cc(-c2cnc3nnn(Cc4ccc5ncccc5c4)c3n2)cn1` [Example 6, 6-((6-(1-(2-methoxyethyl)-1H-pyrazol-4-yl)-1H-[1,2,3]triazolo[4,5-b]pyrazin-1-yl)methyl)-quinoline]: 11 nM. For `COC(=O)C(C)(C)n1cc(-c2cnc3nnn(Cc4ccc5ncccc5c4)c3n2)cn1` [Example 65, 2-Methyl-2-[4-(3-quinolin-6-ylmethyl-3H-[1,2,3]triazolo[4,5-b]pyrazin-5-yl)-pyrazol-1-yl]-propionic acid methyl ester], the Ki turned out to be 47 nM.

Take `CN(CCS(C)(=O)=O)c1cnc2nnn(Cc3ccc4ncccc4c3)c2n1` [Example 85, N-methyl-N-[2-(meth-ylsulfonyl)ethyl]-1-(quino-lin-6-yl-methyl)-1H-[1,2,3]tri-azolo[4,5-b]pyra-zin-6-amine]: the inhibition constant (Ki) stood at 12 nM. As for `CN(Cc1cc(-c2ccccn2)no1)c1cnc2nnn(Cc3ccc4ncccc4c3)c2n1` [Example 93, N-methyl-N-[(3-pyri-din-2-ylisoxa-zol-5-yl)meth-yl]-1-(quino-lin-6-yl-methyl)-1H-[1,2,3]tri-azolo[4,5-b]pyra-zin-6-amine], the figure is 29 nM. Next, `O=C1CCN(c2cnc3nnn(Cc4ccc5ncccc5c4)c3n2)CCN1` [Example 79, 1-[1-(quinolin-6-yl-methyl)-1H-[1,2,3]tri-azolo[4,5-b]py-razin-6-yl]-14-di-azepan-5-one]: 11 nM. Next, `CC(C)(C(N)=O)n1cc(-c2cnc3nnn(Cc4ccc5ncccc5c4)c3n2)cn1` [Example 67, 2-[4-(3-Quinolin-6-ylmethyl-3H-[1,2,3]triazolo[4,5-b]pyrazin-5-yl)-pyrazol-1-yl]-isobutyramide]: 41 nM; `COC(=O)Cn1cc(-c2cnc3nnn(Cc4ccc5ncccc5c4)c3n2)cn1` [Example 66, [4-(3-Quinolin-6-ylmethyl-3H-[1,2,3]triazolo[4,5-b]pyrazin-5-yl)-pyrazol-1-yl]-acetic acid methyl ester]: 18 nM.

In the case of `NC(=O)C1(N)CCN(c2cnc3nnn(Cc4ccc5ncccc5c4)c3n2)C1` (stereo not shown) [Example 189], the Ki was determined as 187 nM. As for `C[C@H](O)CNc1cnc2nnn(Cc3cc4cccnc4cc3F)c2n1` [Example 173, (2)-1-({1-[(7-fluoro-quinolin-6-yl)meth-yl]-1H-[1,2,3]tri-azolo[4,5-b]pyra-zin-6-yl}ami-no)propan-2-ol], the figure is 4 nM; as for `CCCCOc1cnc2nnn(Cc3ccc4ncccc4c3)c2n1` [Example 161, 6-[(6-butoxy-1H-[1,2,3]tri-azolo[4,5-b]pyra-zin-1-yl)meth-yl]quinoline], 14 nM. Next, `CC(C)(O)c1cnc2nnn(Cc3ccc4ncccc4c3)c2n1` [Example 182, 2-(3-Quinolin-6-yl-methyl-3H-[1,2,3]tri-azolo[4,5-b]pyra-zin-5-yl)-pro-pan-2-ol]: 857 nM; `COCCNc1cnc2nnn(Cc3ccc4ncccc4c3)c2n1` [Example 71, N-(2-meth-oxyethyl)-1-(quino-lin-6-yl-methyl)-1H-[1,2,3]tri-azolo[4,5-b]py-rain-6-amine]: 23 nM. For `CC1(CO)CCN(c2cnc3nnn(Cc4ccc5ncccc5c4)c3n2)CC1` [Example 94, {4-methyl-1-[1-(quino-lin-6-yl-methyl)-1H-[1,2,3]tri-azolo[4,5-b]pyra-zin-6-yl]pipe-ridin-4-yl}methanol], the inhibitory constant (Ki) came to 36 nM. As for `C[C@H]1COCCN1c1cnc2nnn(Cc3ccc4ncccc4c3)c2n1` [Example 199, 6-({6-[(3S)-3-methyl-morpholin-4-yl]-1H-[123]tri-azolo[45-b]pyra-zin-1-yl}methyl)quinoline], the inhibition constant Ki turned out to be 138 nM. As for `NC(=O)c1cnc2nnn(Cc3ccc4ncccc4c3)c2n1` [Example 162, 1-(quinolin-6-yl-methyl)-1H-[1,2,3]tri-azolo[4,5-b]pyra-zine-6-carbox-amide], the figure is 17 nM; as for `Fc1cc2ncccc2cc1Cn1nnc2ncc(NC3CCOC3)nc21` (stereo not shown) [Example 152, 1-[(7-fluoro-quinolin-6-yl)meth-yl]-N-(tetra-hydrofuran-3-yl)-1H-[1,2,3]tri-azolo[4,5-b]pyra-zin-6-amine], 1 nM. As for `CC(C)(CNc1cnc2nnn(Cc3ccc4ncccc4c3)c2n1)NC(=O)OC(C)(C)C` [Example 188, tert-butyl(1,1-di-methyl-2-{[1-(quino-lin-6-yl-methyl)-1H-[1,2,3]tri-azolo[4,5-b]pyra-zin-6-yl]ami-no}ethyl)carbamate], the figure is 103 nM; as for `FC1(F)CCN([C@H]2CCN(c3cnc4nnn(Cc5ccc6ncccc6c5)c4n3)C2)CC1` [Example 207, 6-({6-[(3S)-3-(4,4-di-fluoropiperidin-1-yl)pyrro-lidin-1-yl]-1H-[1,2,3]tri-azolo[4,5-b]pyra-zin-1-yl}meth-yl)quinoline. TFA salt], 23 nM.

Broadly, the Ki is a measure of affinity in units of concentration, obtained from inhibition or displacement.
